According to patent publication US11958861B2, “Spirocyclic lactams as JAK2 V617F inhibitors” (Incyte Corporation, priority 2021, dated 2024):
Where a name gives a salt, the structure may show the parent alone.

Columns and labels:
[1] = target: T1, catalytic domain (JH1, amino acids 826-1132) of human JAK2 (Homo sapiens, UniProt O60674); test: JAK2 LanthaScreen JH1 Binding Assay; conditions: 2 hours at 25° C.
T1 construct: catalytic domain (JH1, amino acids 826-1132) of human JAK2; purchased Carna Biosciences 08-445-20N; host or cells: baculovirus expression system
T1 sequence (O60674 826-1132): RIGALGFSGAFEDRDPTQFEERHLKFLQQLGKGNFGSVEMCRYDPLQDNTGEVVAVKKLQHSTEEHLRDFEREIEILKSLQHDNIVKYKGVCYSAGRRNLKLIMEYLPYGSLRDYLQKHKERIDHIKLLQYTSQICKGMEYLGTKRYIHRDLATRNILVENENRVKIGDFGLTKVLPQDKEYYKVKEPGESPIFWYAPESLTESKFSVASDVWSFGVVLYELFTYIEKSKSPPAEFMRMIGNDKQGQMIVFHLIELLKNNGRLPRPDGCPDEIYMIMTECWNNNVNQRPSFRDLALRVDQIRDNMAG
Method in brief: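 Reaction held 1.5 nM biotinylated FLAG-JAK2 JH1, 50 nM tracer and 0.5 nM streptavidin-Tb in pH 7.5 Tris buffer; 2 mM ATP defined nonspecific binding.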

[2] = target: T2, pseudo-kinase domain (JH2, amino-acids 536-812) of human V617F mutant JAK2 (Homo sapiens, UniProt O60674, F794H/V617F/W659A/W777A); test: JAK2 LanthaScreen JH2-V617F Binding Assay; conditions: 1 hour at 25° C.
T2 construct: pseudo-kinase domain (JH2, amino-acids 536-812 with 3 surface mutations W659A, W777A, F794H); purchased BPS Bioscience 79498; host or cells: baculovirus expression system
T2 sequence (O60674 536-812 V617F/W659A/W777A/F794H): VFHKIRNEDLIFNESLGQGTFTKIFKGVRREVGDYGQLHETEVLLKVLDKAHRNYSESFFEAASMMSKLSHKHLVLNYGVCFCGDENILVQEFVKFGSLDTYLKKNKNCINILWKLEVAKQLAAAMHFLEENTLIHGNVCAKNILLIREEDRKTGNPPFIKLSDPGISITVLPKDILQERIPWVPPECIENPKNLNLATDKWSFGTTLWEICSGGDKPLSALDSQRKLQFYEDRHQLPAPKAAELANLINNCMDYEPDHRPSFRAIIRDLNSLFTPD
Method in brief: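 TR-FRET tracer displacement: 0.26 nM protein, 50 nM tracer, 0.25 nM SA-Tb, 50 mM Tris pH 7.5, 10 mM MgCl2, 5 mM DTT; 1 h, 25° C. NSB = 2 mM ATP. IC50, 4-parameter curve.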

[3] = target: T3, catalytic domain (JH1, amino acids 808-1132) of human JAK2 (Homo sapiens, UniProt O60674); test: JAK2 HTRF Enzyme Activity Assay; assay type: biochemical; conditions: ATP 30 μM, read-out: ENZ 30UMATP
T3 construct: catalytic domain (JH1, amino acids 808-1132) of human JAK2; His (N); purchased BPS Bioscience 40450; host or cells: baculovirus expression system
T3 sequence (O60674 808-1132): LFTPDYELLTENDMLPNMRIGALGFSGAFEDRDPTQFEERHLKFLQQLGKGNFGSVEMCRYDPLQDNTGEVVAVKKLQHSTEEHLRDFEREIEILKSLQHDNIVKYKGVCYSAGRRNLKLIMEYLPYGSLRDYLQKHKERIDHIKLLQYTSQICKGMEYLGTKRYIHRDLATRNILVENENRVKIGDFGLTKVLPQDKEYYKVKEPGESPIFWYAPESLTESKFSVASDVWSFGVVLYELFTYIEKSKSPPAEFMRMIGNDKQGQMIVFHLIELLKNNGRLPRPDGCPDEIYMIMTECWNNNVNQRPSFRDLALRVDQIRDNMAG
Method in brief: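 IC50 values come from a four-parameter fit of HTRF signal (Eu-PY20 antibody/streptavidin-APC, EDTA-quenched). Reaction: 0.015 nM N-His JAK2 catalytic domain (baculovirus), 500 nM biotin-peptide, 30 μM or 1 mM ATP, Tris pH 7.5 buffer, 60 min, 25° C.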

[4] = target: T4, pseudo-kinase domain (JH2, amino-acids 536-812) of human Wild Type JAK2 (Homo sapiens, UniProt O60674, F794H/W659A/W777A); test: JAK2 LanthaScreen JH2-WT Binding Assay; conditions: 1 hour at 25° C.
T4 construct: pseudo-kinase domain (JH2, amino-acids 536-812 with 3 surface mutations W659A, W777A, F794H); purchased BPS Bioscience 79463; host or cells: baculovirus expression system
T4 sequence (O60674 536-812 W659A/W777A/F794H): as the sequence (O60674 536-812 V617F/W659A/W777A/F794H) above, with F82V counted along it
Method in brief: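 TR-FRET tracer displacement: 0.145 nM biotinylated JH2 protein, 50 nM fluorescent tracer, 0.25 nM streptavidin-Tb, compound dilution series; 50 mM Tris pH 7.5, 10 mM MgCl2, 5 mM DTT; 1 h, 25° C. Non-specific binding with 2 mM ATP. IC50 by 4-parameter fit.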

Structure (SMILES) | IC50 [1] | IC50 [2] | IC50 [3] | IC50 [4]
COC(=O)N1CCC2(CC1)CC1(C2)C(=O)N(C)c2cnc3[nH]c(-c4cnn(C)c4)c(-c4ccc5c(cnn5C)c4)c3c21 [Example 61, Methyl 6-methyl-1-(1-methyl-1H-indazol-5-yl)-2-(1-methyl-1H-pyrazol-4-yl)-7-oxo-6,7-dihydro-3H-dispiro[dipyrrolo[2,3-b:3′,2′-d]pyridine-8,1′-cyclobutane-3′,4″-piperidine]-1″-carboxylate, trifluoroacetate salt] | 500 to 1250 nM | ≤ 100 nM | 500 to 1250 nM | ≤ 100 nM
COCCS(=O)(=O)N1CCC2(CC1)CC1(C2)C(=O)N(C)c2cnc3[nH]c(-c4cnn(C)c4)c(-c4ccccc4)c3c21 [Example 62, 1″-((2-Methoxyethyl)sulfonyl)-6-methyl-2-(1-methyl-1H-pyrazol-4-yl)-1-phenyl-3,6-dihydro-7H-dispiro[dipyrrolo[2,3-b:3′,2′-d]pyridine-8,1′-cyclobutane-3′,4″-piperidin]-7-one, trifluoroacetate salt] | > 2500 nM | ≤ 100 nM | > 2500 nM | ≤ 100 nM
CCCC(=O)N1CCC2(CC1)CC1(C2)C(=O)N(C)c2cnc3[nH]c(-c4ccn(C)c4)c(-c4ccc5c(cnn5C)c4)c3c21 [Example 64, 1″-Butyryl-6-methyl-1-(1-methyl-1H-indazol-5-yl)-2-(1-methyl-1H-pyrrol-3-yl)-3,6-dihydro-7H-dispiro[dipyrrolo[2,3-b:3′,2′-d]pyridine-8,1cyclobutane-3′,4″-piperidin]-7-one, trifluoroacetate salt] | 1250 to 2500 nM | ≤ 100 nM | 1250 to 2500 nM | ≤ 100 nM
CN1C(=O)C2(CCN(C3(CC#N)CCCC3)CC2)c2c1cnc1[nH]c(-c3cnn(C)c3)c(-c3ccc4c(cnn4C)c3)c21 [Example 73, 2-(1-(6-Methyl-1-(1-methyl-1H-indazol-5-yl)-2-(1-methyl-1H-pyrazol-4-yl)-7-oxo-6,7-dihydro-3H-spiro[dipyrrolo[2,3-b:3′,2′-d]pyridine-8,4′-piperidin]-1′-yl)cyclopentyl)acetonitrile, trifluoroacetate salt] | 100 to 500 nM | ≤ 100 nM | 100 to 500 nM | ≤ 100 nM
CN1C(=O)C2(C=CN(C3(CC#N)CC3)C=C2)c2c1cnc1[nH]c(-c3cnn(C)c3)c(-c3ccc4c(cnn4C)c3)c21 [Example 74, 2-(1-(6-Methyl-1-(1-methyl-1H-indazol-5-yl)-2-(1-methyl-1H-pyrazol-4-yl)-7-oxo-6,7-dihydro-1′H,3H-spiro[dipyrrolo[2,3-b:3′,2′-d]pyridine-8,4′-pyridin]-1′-yl)cyclopropyl)acetonitrile, trifluoroacetate salt] | 500 to 1250 nM | ≤ 100 nM | 500 to 1250 nM | ≤ 100 nM
CN1C(=O)C2(CCN(C(C)(C)c3c[nH]nn3)CC2)c2c1cnc1[nH]c(-c3cnn(C)c3)c(-c3ccc4c(cnn4C)c3)c21 [Example 76, 1′-(2-(1H-1,2,3-Triazol-4-yl)propan-2-yl)-6-methyl-1-(1-methyl-1H-indazol-5-yl)-2-(1-methyl-1H-pyrazol-4-yl)-3,6-dihydro-7H-spiro[dipyrrolo[2,3-b:3′,2′-d]pyridine-8,4′-piperidin]-7-one] | 100 to 500 nM | ≤ 100 nM | 100 to 500 nM | ≤ 100 nM
CN1C(=O)C2(CCN(C(C)(C)c3nnc[nH]3)CC2)c2c1cnc1[nH]c(-c3cnn(C)c3)c(-c3ccc4c(cnn4C)c3)c21 [Example 77, 1′-(2-(4H-1,2,4-Triazol-3-yl)propan-2-yl)-6-methyl-1-(1-methyl-1H-indazol-5-yl)-2-(1-methyl-1H-pyrazol-4-yl)-3,6-dihydro-7H-spiro[dipyrrolo[2,3-b:3′,2′-d]pyridine-8,4′-piperidin]-7-one] | 500 to 1250 nM | ≤ 100 nM | 500 to 1250 nM | ≤ 100 nM
[2H]C([2H])([2H])n1ncc2cc(-c3c(-c4cnn5c4CCC5)[nH]c4ncc5c(c34)C3(CCN(C4(CC#N)CCCC4)CC3)C(=O)N5C)ccc21 [Example 79, 2-(1-(2-(5,6-Dihydro-4H-pyrrolo[1,2-b]pyrazol-3-yl)-6-methyl-1-(1-(methyl-d3)-1H-indazol-5-yl)-7-oxo-6,7-dihydro-3H-spiro[dipyrrolo[2,3-b:3′,2′-d]pyridine-8,4′-piperidin]-1′-yl)cyclopentyl)acetonitrile] | > 2500 nM | ≤ 100 nM | 1250 to 2500 nM | ≤ 100 nM
COC(=O)N1CCC(CC#N)(N2CCC3(CC2)C(=O)N(C)c2cnc4[nH]c(-c5cnn(C)c5)c(-c5ccc6c(cnn6C)c5)c4c23)CC1 [Example 81, Methyl 4-(cyanomethyl)-4-(6-methyl-1-(1-methyl-1H-indazol-5-yl)-2-(1-methyl-1H-pyrazol-4-yl)-7-oxo-6,7-dihydro-3H-spiro[dipyrrolo[2,3-b:3′,2′-d]pyridine-8,4′-piperidin]-1′-yl)piperidine-1-carboxylate] | 500 to 1250 nM | ≤ 100 nM | 500 to 1250 nM | ≤ 100 nM
CC(=O)NC12CC(N3CCC4(CC3)C(=O)N(C)c3cnc5[nH]c(-c6cnn(C)c6)c(-c6ccc7c(cnn7C)c6)c5c34)(C1)C2 [Example 82, N-(3-(6-Methyl-1-(1-methyl-1H-indazol-5-yl)-2-(1-methyl-1H-pyrazol-4-yl)-7-oxo-6,7-dihydro-3H-spiro[dipyrrolo[2,3-b:3′,2′-d]pyridine-8,4′-piperidin]-1′-yl)bicyclo[1.1.1]pentan-1-yl)acetamide] | 100 to 500 nM | ≤ 100 nM | 100 to 500 nM | ≤ 100 nM
COC(=O)N1CC2(N3CCC4(CC3)C(=O)N(C)c3cnc5[nH]c(-c6cnn(C)c6)c(-c6ccc7c(cnn7C)c6)c5c34)CC1C2 [Example 83, Methyl 4-(6-methyl-1-(1-methyl-1H-indazol-5-yl)-2-(1-methyl-1H-pyrazol-4-yl)-7-oxo-6,7-dihydro-3H-spiro[dipyrrolo[2,3-b:3′,2′-d]pyridine-8,4′-piperidin]-1′-yl)-2-azabicyclo[2.1.1]hexane-2-carboxylate] | 1250 to 2500 nM | ≤ 100 nM | 1250 to 2500 nM | ≤ 100 nM
CN1C(=O)C2(CCN(C(C)(C)C3CNC3)CC2)c2c1cnc1[nH]c(-c3cnn(C)c3)c(-c3ccc4c(cnn4C)c3)c21 [Example 84, 1′-(2-(Azetidin-3-yl)propan-2-yl)-6-methyl-1-(1-methyl-1H-indazol-5-yl)-2-(1-methyl-1H-pyrazol-4-yl)-3,6-dihydro-7H-spiro[dipyrrolo[2,3-b:3′,2′-d]pyridine-8,4′-piperidin]-7-one] | 500 to 1250 nM | ≤ 100 nM | 100 to 500 nM | ≤ 100 nM
O=C(O)C(F)(F)F.[2H]C([2H])([2H])n1ncc2cc(-c3c(-c4ccc(CN5CCOCC5)cc4)[nH]c4ncc5c(c34)C3(CC4(CN(S(=O)(=O)CC)C4)C3)C(=O)N5C)ccc21 [Example 85, 1-(Ethylsulfonyl)-6″-methyl-1″-(1-(methyl-d3)-1H-indazol-5-yl)-2″-(4-(morpholinomethyl)phenyl)-3″,6″-dihydro-7″H-dispiro[azetidine-3,1′-cyclobutane-3′,8″-dipyrrolo[2,3-b:3′,2′-d]pyridin]-7″-one, trifluoroacetate salt] | 1250 to 2500 nM | ≤ 100 nM | 1250 to 2500 nM | ≤ 100 nM
CCS(=O)(=O)N1CC2(C1)CC1(C2)C(=O)N(C)c2cnc3[nH]c(-c4cnn(C)c4)c(-c4ccc5c(cnn5C)c4)c3c21 [Example 86, l-(Ethylsulfonyl)-6″-methyl-1″-(1-methyl-1H-indazol-5-yl)-2″-(1-methyl-1H-pyrazol-4-yl)-3″,6″-dihydro-7″H-dispiro[azetidine-3,1′-cyclobutane-3′,8″-dipyrrolo[2,3-b:3′,2′-d]pyridin]-7″-one, trifluoroacetate salt] | 500 to 1250 nM | ≤ 100 nM | 500 to 1250 nM | ≤ 100 nM
CCS(=O)(=O)N1CC2(C1)CC1(C2)C(=O)N(C)c2cnc3[nH]c(-c4cnn(CC5CC5)c4)c(-c4ccc5c(cnn5C)c4)c3c21 [Example 87, 2″-(1-(Cyclopropylmethyl)-1H-pyrazol-4-yl)-1-(ethylsulfonyl)-6″-methyl-1″-(1-methyl-1H-indazol-5-yl)-3″,6″-dihydro-7″H-dispiro[azetidine-3,1′-cyclobutane-3′,8″-dipyrrolo[2,3-b:3′,2′-d]pyridin]-7″-one, trifluoroacetate salt] | 1250 to 2500 nM | ≤ 100 nM | 1250 to 2500 nM | ≤ 100 nM
